Measurements: patent publication US10899763B2, “Crystalline forms of salts of fused penta-cyclic dihydrodiazepinocarbazolones, and uses thereof” (BEIGENE, LTD., priority 2017, dated 2021)
Read-outs that look alike come from different tables or passages of the source.

Legend:
[1] = system: BRCA1 mutation breast cancer xenograft; assay: BRCA1 mutation breast cancer xenograft model; format: in vivo; settings: at much lower dose than olaparib
Ames assay = format: cell-based
H209 SCLC xenograft = H209 SCLC xenograft model, combination with TMZ; format: in vivo, mouse; settings: combination of Compound 1 and TMZ, multiple cycles
Excerpt: (§1) The in vivo efficacy of Compound 1 was explored in H209 SCLC xenograft model to evaluate the combination effect of Compound 1 and Temozolomide (TMZ), a DNA alkylating agent. TMZ single agent was quite effective in this model. […] However, resistance occurred quickly during the second cycle. […] In order to investigate whether Compound 1 could overcome the TMZ resistance, TMZ-resistant (TR) H209 tumors were generated by treating the H209 tumors with multiple cycles of TMZ in vivo. […] Mice with established intracranial H209 xenografts were used to further investigate the combination activity of Compound 1 and TMZ on SCLC in brain.

[2] = Plasma protein binding, rat plasma; format: in vitro ADME
PARP = settings: for PARylation inhibition in tumor: 5.45 mg/kg single oral dose
[3] = Phase I clinical safety study; format: in vivo; settings: BRCA1/2 mutant ovary cancer patients
Pharmacokinetics in rat = format: in vivo
Method: (§2) The species used for the pharmacokinetic studies were rat and dog. Compound 1 had good to excellent oral bioavailability (>40%) in both species. Elimination half-lives ranged from 3.1 to 5.0 hours in rats and 1.5 to 2.5 hours in dogs after oral administration. […] Steady state volume of distribution in rats and dogs was 2.4 L/kg and 1.9 L/kg, respectively.

[4] = Tissue distribution and excretion after oral administration in rats; format: in vivo
Method: After oral administration in rats, Compound 1 was detected in all organs checked. The drug concentrations reached maximum at 0.25 to 1 hour post-dosing and decreased to less than 10% of the peak concentration at 24 hours post-dosing.
Compound 1 was primarily excreted in feces. The accumulative excretion amounts of Compound 1 in feces were 15% to 20% (up to 48 hours) after oral administration. Less than 1% of Compound 1 was excreted in urine and bile in rats.

[5] = Metabolism in human liver microsomes; format: in vitro ADME
[6] = Metabolism in rat liver microsomes; format: in vitro ADME
[7] = Metabolism in monkey liver microsomes; format: in vitro ADME
CYP3A = assay: CYP induction, CYP3A; format: in vitro ADME, human
[8] = Nonclinical toxicity, single and repeat dose up to 28 days, dogs; format: in vivo
MDA-MB-231 cells = assay: Synthetic lethality, CellTiter-Glo cell viability, MDA-MB-231; format: cell-based; settings: Homo sapiens; MDA-MB-231, BRCA wildtype; read-out: EC50
Method: MDA-MB-231 cells that is not BRCA gene mutant or other homologous recombination deficient were maintained in DMEM supplemented with fetal bovine serum (10% FBS), 100 units/ml penicillin and 0.1 mg/ml streptomycin. BRCA1-deficient cell line MDA-MB-436 was maintained in RPMI-1640 supplemented with 10% FBS, 100 units/ml penicillin and 0.1 mg/ml streptomycin. Both two cell lines were kept at 95% humidity and 5% CO2 in a 37° C. incubator.
The number of tumor cells seeded per well of a 96-well plate was optimized for each cell line to ensure logarithmic growth over the 7 days treatment period. Cells were left to attach for 16 hours and then treated with specific concentrations of test compounds. Following a 7-day exposure to the compound, the growth-inhibitory activity of compounds was determined using CellTiter-Glo luminescent cell viability assay (Promega). Luminescent signal was measured using PHERAstar FS reader (BMG Labtech). Cell viability was expressed as relative to mock treatment control. EC50 values for growth inhibition were calculated by fitting dose-dependent data to the four-parameter logistic model using XLfit software.

CYP isoform = assay: CYP isoforms responsible for metabolism; format: in vitro ADME
Brain penetration = settings: in vivo
[9] = Metabolism in dog liver microsomes; format: in vitro ADME
[10] = Metabolism in mouse liver microsomes; format: in vitro ADME
CYP2B6 = assay: CYP induction, CYP2B6; format: in vitro ADME, human
[11] = system: intracranial H209 xenografts; assay: Intracranial H209 xenograft model; format: in vivo, Mice; settings: addition of Compound 1 to TMZ
Excerpt: as §1

human CYP1A2 = assay: CYP induction, CYP1A2; format: in vitro ADME
[12] = system: TMZ-resistant (TR) H209 tumors; assay: TMZ-resistant H209-TR xenograft mouse model; format: in vivo; settings: combination of Compound 1 and TMZ
Excerpt: as §1

Pharmacokinetics in dog = format: in vivo
Method: as §2

[13] = Nonclinical toxicity, single and repeat dose up to 28 days, rats; format: in vivo

C[C@]12CCCN1CC1=NNC(=O)c3cc(F)cc4[nH]c2c1c34 [Compound 1, (R)-2-fluoro-10a-methyl-7,8,9,10,10a,11-hexahydro-5,6,7a,11-tetraazacyclohepta[def]cyclopenta-[a]fluoren-4(5H)-one]
tumor regression [1]: significantly induces tumor regression
mutagenicity (Ames assay): No mutagenicity
effect of combination with TMZ on resistance (H209 SCLC xenograft): significantly delayed resistance without additional toxicity
Plasma protein binding (PPB) [2]: 84.9%
PARylation inhibition in tumor (PARP; 0.5 hour after treatment): 98%
PARylation inhibition in tumor (PARP; at 24 hours): 53%
PARylation inhibition in tumor (PARP; through the first 12 hours): > 80%
single oral dose at which potent inhibition of PARylation was observed (PARP; at 4 hours after single oral dose): ≥ 0.34 mg/kg
concentration in tumor tissues needed to achieve at least 80% PARylation inhibition (PARP; dose titration and time course study): over 0.5 μmol/kg
clinical response [3]: partial or complete responses
accumulation following multiple oral dosing (Pharmacokinetics in rat): no accumulation
excreted in urine and bile [4]: Less than 1%
drug concentration in organs as % of the peak concentration ([4]; oral, 24 hours post-dosing): less than 10%
metabolism rate in liver microsomes [5]: metabolized slowly
metabolism rate in liver microsomes [6]: metabolized slowly
metabolism rate in liver microsomes [7]: quickly
induction of human CYP3A (CYP3A): not an inducer
reversibility of toxicity [8]: reversible after 28-day recovery phase
major target organ of toxicity ([8]; up to 28 days): bone marrow
EC50 (MDA-MB-231 cells): ~9 µM
major CYP isoform responsible for metabolism (CYP isoform): CYP3A
brain penetration (Brain penetration): significant brain penetration
metabolism rate in liver microsomes [9]: metabolized slowly
metabolism rate in liver microsomes [10]: metabolized slowly
induction of human CYP2B6 (CYP2B6): not an inducer
animal survival compared to TMZ single agent [11]: significantly prolonged animal survival
induction of human CYP1A2 (human CYP1A2): not an inducer
sensitivity of H209-TR lines to combination with TMZ [12]: remained sensitive
accumulation following multiple oral dosing (Pharmacokinetics in dog): no accumulation
reversibility of toxicity [13]: reversible after 28-day recovery phase
major target organ of toxicity ([13]; up to 28 days): bone marrow
